The text below walks through data of PubChem BioAssay (NCI).

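Method: 48-hour compound exposure of cells in 96-well plates, five concentrations, linear interpolation of endpoints. GI50: concentration for 50% inhibition of growth. TGI: concentration producing complete growth inhibition.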

Some test systems named below: OVCAR-5 ovarian; U251 CNS; OVCAR-3 ovarian; NCI-H522 lung; OVCAR-4 ovarian; DU-145 prostate; OVCAR-8 ovarian; K-562 leukemia; SR leukemia; SK-MEL-28 melanoma.
Common to all, as to assay: inhibition of tumour cell growth, NCI panel, 48 h

For `COc1ccc2c(c1)nc1n2C(c2ccc(F)cc2)SC1` (stereo unspecified), the GI50 in the assay with OVCAR-5 ovarian is 33.6 µM; in the assay on U251 CNS, 27.9 µM; in the assay on OVCAR-3 ovarian, 22600 nM; in the assay with NCI-H522 lung, 18.1 µM; in the assay on OVCAR-4 ovarian, 33.8 µM; in the assay on DU-145 prostate, 15.2 µM. The GI50 in the assay with OVCAR-8 ovarian was 17.2 µM; in the assay on K-562 leukemia it was 42300 nM. Also, the TGI in the assay with OVCAR-5 ovarian is more than 100 µM; in the assay on U251 CNS, 83.7 µM; in the assay with OVCAR-3 ovarian it was 65.4 µM; with NCI-H522 lung, 66.3 µM; with OVCAR-4 ovarian, more than 100 µM; with DU-145 prostate it was more than 100 µM. Besides, the TGI with OVCAR-8 ovarian is 43.2 µM; with K-562 leukemia it was more than 100 µM.

Regarding `C1=C2CNCC3=Cc4ccc5ccccc5c4OC23Oc2c1ccc1ccccc21`, the GI50 was 2200 nM with SR leukemia; 3.26 µM in the assay with U251 CNS; 2340 nM with OVCAR-3 ovarian; 3.01 µM in the assay with NCI-H522 lung; 4.71 µM with OVCAR-4 ovarian; 7.38 µM in the assay on SK-MEL-28 melanoma. Further, the GI50 is 3.29 µM with DU-145 prostate, 2.99 µM in the assay with OVCAR-8 ovarian and 2950 nM in the assay with K-562 leukemia. For the same molecule, the TGI in the assay with SR leukemia was determined as 5.4 µM; in the assay with U251 CNS it was 14.8 µM; in the assay on OVCAR-3 ovarian, 5.5 µM; with NCI-H522 lung it was 13.1 µM; in the assay on OVCAR-4 ovarian, 19.8 µM; with DU-145 prostate it was 11.1 µM. For the same molecule, the TGI with OVCAR-8 ovarian amounted to 14.9 µM; in the assay with K-562 leukemia it was 21.2 µM.

For `NC(N)=N/N=C/c1c(-c2ccc(Cl)c([N+](=O)[O-])c2)nc2n1CCS2`, the GI50 is 14.6 µM in the assay with OVCAR-5 ovarian; 1930 nM in the assay with OVCAR-3 ovarian; 35.6 µM in the assay on NCI-H522 lung; 14.7 µM in the assay on OVCAR-4 ovarian; 16.6 µM in the assay with SK-MEL-28 melanoma; 14.5 µM in the assay with DU-145 prostate. Moreover, the GI50 was 8.89 µM in the assay with OVCAR-8 ovarian and 3960 nM with K-562 leukemia. Besides, the TGI is 27.8 µM with OVCAR-5 ovarian; 3.91 µM in the assay on OVCAR-3 ovarian; more than 100 µM in the assay with NCI-H522 lung; 32.8 µM in the assay on OVCAR-4 ovarian; 35.5 µM in the assay with SK-MEL-28 melanoma; 28.2 µM in the assay with DU-145 prostate. Besides, the values for the TGI in the assay on OVCAR-8 ovarian and in the assay on K-562 leukemia were more than 100 µM and 16.6 µM, respectively.

Turning to `C=C(CNCCc1ccc(O)cc1)[C@@H]1CC[C@]2(CO)CC[C@]3(C)[C@H](CC[C@@H]4[C@@]5(C)CCC(N)C(C)(C)[C@@H]5CC[C@]43C)[C@@H]12` (stereo partly specified), the GI50 in the assay with U251 CNS was 0.917 µM; with OVCAR-3 ovarian it was 1650 nM; with NCI-H522 lung, 1.76 µM; in the assay with OVCAR-4 ovarian, 1.44 µM; with SK-MEL-28 melanoma it was 1.76 µM; in the assay with DU-145 prostate, 1.63 µM. Moreover, the GI50 in the assay on OVCAR-8 ovarian is 0.0235 µM. Further, the TGI in the assay with U251 CNS turned out to be 2.12 µM; with OVCAR-3 ovarian it was 3.1 µM; in the assay with NCI-H522 lung it was 3.42 µM; in the assay on OVCAR-4 ovarian, 2.95 µM; with SK-MEL-28 melanoma it was 3.28 µM; in the assay on DU-145 prostate, 2.98 µM. In the assay on OVCAR-8 ovarian, the TGI is 1.39 µM.

For `COc1ccc2cc(-c3c(-c4ccncc4)nc(-c4ccc(S(C)=O)cc4C)n3C)ccc2c1` (stereo unspecified), the GI50 in the assay with OVCAR-5 ovarian was more than 25 µM; in the assay with U251 CNS, more than 23.2 µM; with OVCAR-3 ovarian it was 14300 nM; in the assay with NCI-H522 lung, 10.6 µM; in the assay with OVCAR-4 ovarian, 16.3 µM; in the assay with SK-MEL-28 melanoma, more than 25 µM. In addition, the figures for the GI50 in the assay with DU-145 prostate, in the assay with OVCAR-8 ovarian and in the assay on K-562 leukemia were more than 25 µM, 24.7 µM and 13400 nM, respectively. For the same molecule, the TGI with OVCAR-5 ovarian, in the assay on U251 CNS, in the assay on OVCAR-3 ovarian, with NCI-H522 lung, with OVCAR-4 ovarian and with SK-MEL-28 melanoma was more than 25 µM each time. Besides, the TGI with DU-145 prostate, in the assay with OVCAR-8 ovarian and in the assay with K-562 leukemia was more than 25 µM throughout.

`c1cnc2[nH]cc(-c3csc(-c4cn(CCCN5CCCCC5)c5ccccc45)n3)c2c1`: the GI50 in the assay on OVCAR-5 ovarian was 1.63 µM; in the assay on SR leukemia, 1890 nM; in the assay on U251 CNS, 1.8 µM; with OVCAR-3 ovarian, 1540 nM; in the assay with OVCAR-4 ovarian it was 1.82 µM; with DU-145 prostate, 1.74 µM. Moreover, the GI50 with K-562 leukemia was 1740 nM. The TGI with OVCAR-5 ovarian worked out at 3.11 µM; with SR leukemia it was 3.74 µM; in the assay with U251 CNS it was 3.28 µM; in the assay on OVCAR-3 ovarian it was 2.96 µM; in the assay on OVCAR-4 ovarian, 4.19 µM; with DU-145 prostate, 3.16 µM. The molecule further yielded a TGI with K-562 leukemia of 3.52 µM.

`CCOCNc1ccc(N2C(=O)/C(=C/c3ccc(N(CC)CC)cc3)N=C2c2ccccc2)cc1`: the GI50 in the assay with OVCAR-5 ovarian was more than 100 µM; in the assay on SR leukemia it was 6500 nM; in the assay with U251 CNS, 3.85 µM; in the assay on OVCAR-3 ovarian, 28300 nM; in the assay on OVCAR-4 ovarian, more than 100 µM; in the assay with SK-MEL-28 melanoma it was more than 100 µM. Further, the GI50 with DU-145 prostate is more than 100 µM; in the assay on OVCAR-8 ovarian it was 10.8 µM; in the assay with K-562 leukemia, 2870 nM. For the same molecule, the TGI is more than 100 µM in the assay with OVCAR-5 ovarian; more than 100 µM in the assay on SR leukemia; 33 µM with U251 CNS; more than 100 µM in the assay on OVCAR-3 ovarian; more than 100 µM with OVCAR-4 ovarian; more than 100 µM in the assay with SK-MEL-28 melanoma. In addition, the TGI with DU-145 prostate, in the assay on OVCAR-8 ovarian and in the assay on K-562 leukemia was more than 100 µM in each case.

With `Fc1c[c-]c(-c2ccccn2)c(F)c1.[CH3-].[Pt+2].c1ccc(P(C[PH+](c2ccccc2)c2ccccc2)c2ccccc2)cc1`, the GI50 is 0.98 µM with OVCAR-5 ovarian; 0.347 µM in the assay with U251 CNS; 411 nM in the assay with OVCAR-3 ovarian; 0.96 µM with NCI-H522 lung; 0.61 µM with OVCAR-4 ovarian; 0.512 µM in the assay with SK-MEL-28 melanoma. The GI50 is 1.06 µM in the assay on DU-145 prostate, 0.63 µM in the assay on OVCAR-8 ovarian and 365 nM with K-562 leukemia. The TGI with OVCAR-5 ovarian is 2.54 µM; in the assay on U251 CNS, 1.06 µM; with OVCAR-3 ovarian it was 1.2 µM; in the assay with NCI-H522 lung it was 3.16 µM; in the assay with OVCAR-4 ovarian it was 3.71 µM; with SK-MEL-28 melanoma, 1.52 µM. Further, the TGI worked out at 6.47 µM in the assay on DU-145 prostate, 5.76 µM with OVCAR-8 ovarian and 6.95 µM in the assay with K-562 leukemia.
